36 compounds from US11414395B2, “Heterocyclic compounds as modulators of mGluR7” (PRAGMA Therapeutics, priority 2017, dated 2022) can be followed below.

The target of the experiment is human mGluR7 (Homo sapiens (Human), UniProt Q14831). As to the kind of experiment: Inositol monophosphate production assay (IP1 assay), inhibition of L-AP4 response. It is filed as cell-based. As to conditions: mean IC50 from at least two independent experiments; HEK293 cells transiently transfected with mGluR7, Gqtop and EAAC1; IP1 production vs EC80 L-AP4. The source says:
Inositol Monophosphate Production Assay (IP1 Assay):
HEK293 cells were transiently transfected with mGluR7 by electroporation and seeded in a poly-ornithine coated 96-well plate at the density of 150 000 cells/well. To allow the monitoring of receptor activity through measurements of inositol monophosphate (IP1) production, mGluR7 was transfected with a chimeric Gq/Gi protein (Gqtop). and was also co-transfected with EAAC1, a glutamate transporter, to avoid influence of extracellular glutamate. Cells were cultured in Dulbecco's Modified Eagle Medium (DMEM, Invitrogen, Cergy Pontoise, France), supplemented with 10% of Fetal Bovine Serum (FBS). Medium was changed by Glutamax™ (Invitrogen, Cergy Pontoise, France) to reduce extracellular glutamate concentration 3 hours before stimulation
IP1 production was determined using the IP-One HTRF kit (CisBio Bioassays), a competitive immunoassay using cryptate-labeled anti-IP1 antibody and d2-labeled IP, according to the manufacturer's recommendations. All points were realized in triplicate.
Data were analyzed with Prism 6 software (GraphPadSoftware, San Diego, Calif.). Typically, in each experiment, a four-parameter concentration-response curve equation was used to fit data and potency (IC50) is estimated as logarithms (log IC50). Data were calculated as % of the control mGluR7 agonist L-AP4 response, defined as the response that is generated upon addition of an EC80-equivalent concentration of L-AP4.
The Table 2 below represents the mean IC50 obtained from at least two independent experiments.

Chain of human mGluR7 (Q14831 35-915): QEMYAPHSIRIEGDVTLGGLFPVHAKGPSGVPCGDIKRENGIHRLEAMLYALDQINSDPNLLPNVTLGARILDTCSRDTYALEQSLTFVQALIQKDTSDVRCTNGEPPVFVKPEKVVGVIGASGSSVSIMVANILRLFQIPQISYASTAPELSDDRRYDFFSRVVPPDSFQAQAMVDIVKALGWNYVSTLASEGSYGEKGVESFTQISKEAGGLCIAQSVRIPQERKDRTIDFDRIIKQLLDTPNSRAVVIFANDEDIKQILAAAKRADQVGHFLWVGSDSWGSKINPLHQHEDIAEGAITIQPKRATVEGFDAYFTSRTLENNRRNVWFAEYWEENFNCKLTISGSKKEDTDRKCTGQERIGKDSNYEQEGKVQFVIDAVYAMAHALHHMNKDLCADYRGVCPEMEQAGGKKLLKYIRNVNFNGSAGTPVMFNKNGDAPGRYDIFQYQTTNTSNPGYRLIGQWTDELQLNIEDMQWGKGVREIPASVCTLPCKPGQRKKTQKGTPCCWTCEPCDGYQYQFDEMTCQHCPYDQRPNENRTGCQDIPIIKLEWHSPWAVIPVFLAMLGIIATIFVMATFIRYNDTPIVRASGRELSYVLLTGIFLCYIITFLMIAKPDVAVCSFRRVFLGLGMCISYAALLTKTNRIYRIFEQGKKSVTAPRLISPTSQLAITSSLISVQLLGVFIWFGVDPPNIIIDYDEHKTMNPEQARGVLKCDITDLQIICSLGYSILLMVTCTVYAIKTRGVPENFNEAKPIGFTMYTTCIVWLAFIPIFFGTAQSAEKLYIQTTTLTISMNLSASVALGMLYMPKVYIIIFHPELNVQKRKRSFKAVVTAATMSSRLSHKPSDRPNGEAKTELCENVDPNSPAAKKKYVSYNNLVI

By IC50 is commonly meant the midpoint of a concentration-inhibition curve. Consider `COc1nc(-n2ncc3c(c2=O)CCC(c2ccc(C)cc2C)C3)ncc1C` (stereo not drawn) [Example 56, 6-(2,4-dimethylphenyl)-2-(4-methoxy-5-methylpyrimidin-2-yl)-5,6,7,8-tetrahydrophthalazin-1(2H)-one], for which the IC50 is less than 500 nM. The compound `Cc1ccc(C2CCc3c(cnn(-c4ncc(CN5CCOCC5)cn4)c3=O)C2)c(C)c1` (stereo not drawn) [Example 57, 6-(2,4-dimethylphenyl)-2-(5-(morpholinomethyl)pyrimidin-2-yl)-5,6,7,8-tetrahydrophthalazin-1(2H)-one] came in with an IC50 of less than 500 nM. The compound `COc1ccccc1C1CCc2c(cnn(-c3ccccn3)c2=O)C1` (stereo not drawn) [Example 58, 6-(2-methoxyphenyl)-2-(pyridin-2-yl)-5,6,7,8-tetrahydrophthalazin-1(2H)-one] came in with an IC50 of less than 500 nM.

Regarding `CN(C)c1cccc(C2CCc3c(cnn(-c4ccccn4)c3=O)C2)c1` (stereo not drawn) [Example 59, 6-(3-(dimethylamino)phenyl)-2-(pyridin-2-yl)-5,6,7,8-tetrahydrophthalazin-1(2H)-one], the IC50 is less than 500 nM.

`COc1cccc(C2CCc3c(cnn(-c4ccccn4)c3=O)C2)c1C` (stereo not drawn) [Example 60, 6-(3-methoxy-2-methylphenyl)-2-(pyridin-2-yl)-5,6,7,8-tetrahydrophthalazin-1(2H)-one]: the IC50 was less than 500 nM. Under `COc1ccc(C)c(C2CCc3c(cnn(-c4ccccn4)c3=O)C2)c1` (stereo not drawn) [Example 61, 6-(5-methoxy-2-methylphenyl)-2-(pyridin-2-yl)-5,6,7,8-tetrahydrophthalazin-1(2H)-one] stands less than 500 nM; under `O=c1c2c(cnn1-c1ccccn1)CC(c1cccc(C3CC3)c1)CC2` (stereo not drawn) [Example 63, 6-(3-cyclopropylphenyl)-2-(pyridin-2-yl)-5,6,7,8-tetrahydrophthalazin-1(2H)-one], 500 to 1000 nM. As for `COc1cc(C2CCc3c(cnn(-c4ccccn4)c3=O)C2)ccc1C` (stereo not drawn) [Example 64, 6-(3-methoxy-4-methylphenyl)-2-(pyridin-2-yl)-5,6,7,8-tetrahydrophthalazin-1(2H)-one], the IC50 lay within 1000 to 30000 nM. In the case of `CC(O)c1cccc(C2CCc3c(cnn(-c4ccccn4)c3=O)C2)c1` (stereo not drawn) [Example 65, 6-(3-(1-hydroxyethyl)phenyl)-2-(pyridin-2-yl)-5,6,7,8-tetrahydrophthalazin-1(2H)-one], the IC50 fell in the range of 500 to 1000 nM.

As to `O=c1c2c(cnn1-c1ccccn1)CC(c1cccc(OC3CC3)c1)CC2` (stereo not drawn) [Example 66, 6-(3-cyclopropoxyphenyl)-2-(pyridin-2-yl)-5,6,7,8-tetrahydrophthalazin-1(2H)-one], the IC50 is less than 500 nM. `COc1cc(C)ccc1C1CCc2c(cnn(-c3ccccn3)c2=O)C1` (stereo not drawn) [Example 67, 6-(2-methoxy-4-methylphenyl)-2-(pyridin-2-yl)-5,6,7,8-tetrahydrophthalazin-1(2H)-one] had an IC50 of 500 to 1000 nM. The value for `COc1c(C)cccc1C1CCc2c(cnn(-c3ccccn3)c2=O)C1` (stereo not drawn) [Example 68, 6-(2-methoxy-3-methylphenyl)-2-(pyridin-2-yl)-5,6,7,8-tetrahydrophthalazin-1(2H)-one] was 500 to 1000 nM; that for `CN1CCc2c(C3CCc4c(cnn(-c5ccccn5)c4=O)C3)cccc21` (stereo not drawn) [Example 69, 6-(1-methylindolin-4-yl)-2-(pyridin-2-yl)-5,6,7,8-tetrahydrophthalazin-1(2H)-one] was less than 500 nM; that for `COc1cc(C)ccc1C1CCc2c(cnn(-c3ncccn3)c2=O)C1` (stereo not drawn) [Example 70, 6-(2-methoxy-4-methylphenyl)-2-(pyrimidin-2-yl)-5,6,7,8-tetrahydrophthalazin-1(2H)-one] was 500 to 1000 nM.

`COc1c(C)cccc1C1CCc2c(cnn(-c3ncccn3)c2=O)C1` (stereo not drawn) [Example 71, 6-(2-methoxy-3-methylphenyl)-2-(pyrimidin-2-yl)-5,6,7,8-tetrahydrophthalazin-1(2H)-one] yielded an IC50 of 500 to 1000 nM. Turning to `COc1cccc(C2CCc3c(cnn(-c4ncccn4)c3=O)C2)c1Cl` (stereo not drawn) [Example 72, 6-(2-chloro-3-methoxyphenyl)-2-(pyrimidin-2-yl)-5,6,7,8-tetrahydrophthalazin-1(2H)-one], the IC50 is less than 500 nM. For the compound `COc1ccc(C(F)(F)F)c(C2CCc3c(cnn(-c4ncccn4)c3=O)C2)c1` (stereo not drawn) [Example 73, 6-(5-methoxy-2-(trifluoromethyl)phenyl)-2-(pyrimidin-2-yl)-5,6,7,8-tetrahydrophthalazin-1(2H)-one], the IC50 lay within 1000 to 30000 nM. Consider `COc1ccc(F)c(C2CCc3c(cnn(-c4ncccn4)c3=O)C2)c1` (stereo not drawn) [Example 74, 6-(2-fluoro-5-methoxyphenyl)-2-(pyrimidin-2-yl)-5,6,7,8-tetrahydrophthalazin-1(2H)-one], for which the IC50 was less than 500 nM. Under `COc1ccc(Cl)c(C2CCc3c(cnn(-c4ncccn4)c3=O)C2)c1` (stereo not drawn) [Example 75, 6-(2-chloro-5-methoxyphenyl)-2-(pyrimidin-2-yl)-5,6,7,8-tetrahydrophthalazin-1(2H)-one] stands less than 500 nM.

The compound `COc1ccc(C)cc1C1CCc2c(cnn(-c3ncccn3)c2=O)C1` (stereo not drawn) [Example 76, 6-(2-methoxy-5-methylphenyl)-2-(pyrimidin-2-yl)-5,6,7,8-tetrahydrophthalazin-1(2H)-one] registered an IC50 of less than 500 nM. `Cc1ccc(N2CCCC2)cc1C1CCc2c(cnn(-c3ncccn3)c2=O)C1` (stereo not drawn) [Example 77, 6-(2-methyl-5-(pyrrolidin-1-yl)phenyl)-2-(pyrimidin-2-yl)-5,6,7,8-tetrahydrophthalazin-1(2H)-one]: the IC50 is less than 500 nM. Take `CN1CCc2c(C3CCc4c(cnn(-c5ncccn5)c4=O)C3)cccc21` (stereo not drawn) [Example 78, 6-(1-methylindolin-4-yl)-2-(pyrimidin-2-yl)-5,6,7,8-tetrahydrophthalazin-1(2H)-one]: the IC50 was less than 500 nM. The value for `COc1cccc(C2CCc3c(cnn(-c4ncccn4)c3=O)C2)c1F` (stereo not drawn) [Example 79, 6-(2-fluoro-3-methoxyphenyl)-2-(pyrimidin-2-yl)-5,6,7,8-tetrahydrophthalazin-1(2H)-one] was less than 500 nM. Compound `COc1ccc(C)c(C2CCc3c(cnn(-c4ncccn4)c3=O)C2)c1` (stereo not drawn) [Example 80, 6-(5-methoxy-2-methylphenyl)-2-(pyrimidin-2-yl)-5,6,7,8-tetrahydrophthalazin-1(2H)-one] showed an IC50 of less than 500 nM.

In turn, `Cc1ccc(C)c(C2CCc3c(cnn(-c4ncccn4)c3=O)C2)c1` (stereo not drawn) [Example 81, 6-(2,5-dimethylphenyl)-2-(pyrimidin-2-yl)-5,6,7,8-tetrahydrophthalazin-1(2H)-one] displayed a 50% inhibitory concentration (IC50) of 500 to 1000 nM. Turning to `Cc1cccc(C2CCc3c(cnn(-c4ncccn4)c3=O)C2)c1C` (stereo not drawn) [Example 82, 6-(2,3-dimethylphenyl)-2-(pyrimidin-2-yl)-5,6,7,8-tetrahydrophthalazin-1(2H)-one], the IC50 was in the range of 500 to 1000 nM.

`COCc1cccc(C2CCc3c(cnn(-c4ncccn4)c3=O)C2)c1` (stereo not drawn) [Example 83, 6-(3-(methoxymethyl)phenyl)-2-(pyrimidin-2-yl)-5,6,7,8-tetrahydrophthalazin-1(2H)-one] came in with an IC50 of 500 to 1000 nM. Compound `Cc1ccc(OC2CC2)cc1C1CCc2c(cnn(-c3ncccn3)c2=O)C1` (stereo not drawn) [Example 84, 6-(5-cyclopropoxy-2-methylphenyl)-2-(pyrimidin-2-yl)-5,6,7,8-tetrahydrophthalazin-1(2H)-one] yielded an IC50 of less than 500 nM.

`O=c1c2c(cnn1-c1ncccn1)CC(c1cccc(OC3CC3)c1)CC2` (stereo not drawn) [Example 85, 6-(3-cyclopropoxyphenyl)-2-(pyrimidin-2-yl)-5,6,7,8-tetrahydrophthalazin-1(2H)-one] displayed an IC50 of less than 500 nM. Turning to `O=c1c2c(cnn1-c1ncccn1)CC(c1cccc(OC3CCCC3)c1)CC2` (stereo not drawn) [Example 86, 6-(3-(cyclopentyloxy)phenyl)-2-(pyrimidin-2-yl)-5,6,7,8-tetrahydrophthalazin-1(2H)-one], the 50% inhibitory concentration (IC50) was in the range of 500 to 1000 nM. `COc1ccc(C2CCc3c(cnn(-c4ncccn4)c3=O)C2)c(C)c1` (stereo not drawn) [Example 87, 6-(4-methoxy-2-methylphenyl)-2-(pyrimidin-2-yl)-5,6,7,8-tetrahydrophthalazin-1(2H)-one] showed an IC50 of less than 500 nM. For `Cc1ccc2c(cnn2C)c1C1CCc2c(cnn(-c3ncccn3)c2=O)C1` (stereo not drawn) [Example 88, 6-(1,5-dimethyl-1H-indazol-4-yl)-2-(pyrimidin-2-yl)-5,6,7,8-tetrahydrophthalazin-1(2H)-one], the IC50 was in the range of 1000 to 30000 nM.

`Cc1cc(C)c(C2CCc3c(cnn(-c4ncccn4)c3=O)C2)c(C)c1` (stereo not drawn) [Example 89, 6-mesityl-2-(pyrimidin-2-yl)-5,6,7,8-tetrahydrophthalazin-1(2H)-one] showed an IC50 of less than 500 nM.

As for `COc1ccc(F)c(C2CCc3c(cnn(-c4ncccn4)c3=O)C2)c1F` (stereo not drawn) [Example 90, 6-(2,6-difluoro-3-methoxyphenyl)-2-(pyrimidin-2-yl)-5,6,7,8-tetrahydrophthalazin-1(2H)-one], the 50% inhibitory concentration (IC50) was less than 500 nM. Under `O=c1c2c(cnn1-c1ncccn1)CC(c1cccc(OC3CC3)c1Cl)CC2` (stereo not drawn) [Example 91, 6-(2-chloro-3-cyclopropoxyphenyl)-2-(pyrimidin-2-yl)-5,6,7,8-tetrahydrophthalazin-1(2H)-one] stands less than 500 nM; under `O=c1c2c(cnn1-c1ncccn1)CC(c1cccc3c1CCN3C1CC1)CC2` (stereo not drawn) [Example 92, 6-(1-cyclopropylindolin-4-yl)-2-(pyrimidin-2-yl)-5,6,7,8-tetrahydrophthalazin-1(2H)-one], less than 500 nM.
